In patent publication US20210195924A1, “PHOTODYNAMIC INACTIVATION METHOD OF SALMONELLA” (SHANGHAI OCEAN UNIVERSITY, priority 2019, published 2021):

Assays:
[1] = test system: Salmonella typhimurium CICC 21484 and Salmonella enteritidis CMCC 50041; test: Riboflavin-mediated photodynamic inactivation of Salmonella in bacterial solution (455-460 nm LED blue light, plate count); type: cell-based
[2] = test system: Salmonella on contaminated egg shells; test: Salmonella inactivation experiment for fresh egg shells; type: cell-based
Experimental: Sterile egg shells were mixed with a Salmonella bacterial solution to be contaminated and divided into three groups as follows: 1, a single photosensitizer group with riboflavin concentration of 150 μmol/L, was subjected to the dark incubation for 40 min without the illumination of a blue light source; 2, a photodynamic experiment group with riboflavin concentration of 150 μmol/L, was subjected to the dark incubation for 40 min under the illumination of the blue light source for 40 min; and 3, a blank reference group with a saline solution having a volume equal to that of the riboflavin solution. Each group was provided with two parallel groups.
Bacteria culture: under a sterile condition, each group of egg shells was diluted with the saline solution for two times and then homogenized by a sterile homogenizing device and diluted. 100 μL diluent with appropriate dilution degrees was inoculated into the TSA solid culture medium and cultured for 24 to 48 h in the thermostatic incubator at 37° C. The number of bacterial colonies in each group was counted.

[3] = test system: vesicular stomatitis virus; conditions: ultraviolet radiation; riboflavin 300 μmol/L; under 10 minutes; cited from earlier work
Escherichia coli = conditions: Gram-negative bacteria Escherichia coli; cited from earlier work
Staphylococcus aureus = conditions: Gram-positive bacteria Staphylococcus aureus; cited from earlier work

Molecule | amount of Salmonella reduced ([1]; riboflavin 100 μmol/L, incubation time 40 min, illumination time 30 min, initial inoculation about 4.5×10^6 CFU/mL) [Log CFU/mL] | lethality (fatality rate) of Salmonella ([1]; riboflavin 150 μmol/L, dark incubation 40 min, illumination 30 min) [%] | fatality rate of Salmonella ([1]; riboflavin 150 μmol/L, dark incubation 40 min, illumination time 40 min) [%] | lethality (fatality rate) of Salmonella ([1]; riboflavin 150 μmol/L, dark incubation 40 min, no blue light (illumination 0 min)) | amount of Salmonella reduced ([1]; riboflavin 150 μmol/L, incubation 40 min, illumination time 20 min, initial inoculation about 6.75 Log CFU/mL) [Log CFU/mL] | amount of Salmonella reduced ([1]; riboflavin 150 μmol/L, incubation 40 min, illumination time 30 min, initial inoculation about 6.75 Log CFU/mL (Embodiment 3)) [Log CFU/mL] | amount of Salmonella reduced ([1]; riboflavin 150 μmol/L, incubation 40 min, illumination time 40 min, initial inoculation about 6.75 Log CFU/mL) [Log CFU/mL] | amount of Salmonella reduced ([1]; riboflavin 150 μmol/L, incubation 40 min, illumination time 50 min, initial inoculation about 6.75 Log CFU/mL) [Log CFU/mL] | amount of Salmonella reduced ([1]; riboflavin 150 μmol/L, incubation time 40 min, illumination time 30 min, initial inoculation about 4.5×10^6 CFU/mL (Embodiment 1)) [Log CFU/mL] | lethality of Salmonella ([1]; riboflavin 200 μmol/L, dark incubation 40 min, illumination 30 min) [%] | amount of Salmonella reduced ([1]; riboflavin 200 μmol/L, incubation time 40 min, illumination time 30 min, initial inoculation about 4.5×10^6 CFU/mL) [Log CFU/mL] | lethality of Salmonella ([1]; riboflavin concentration increased beyond 200 μmol/L, dark incubation 40 min, illumination 30 min) | sterilization rate ([2]; egg shells, photodynamic inactivation with riboflavin as photosensitizer, multiple experiments) [%] | number of bacterial colonies in the egg shells after the PDI treatment ([2]; riboflavin 150 μmol/L, dark incubation 40 min, blue light 40 min, blank reference group 7.4×10^5 CFU/g) | number of bacterial colonies in the egg shells of the single photosensitizer group ([2]; riboflavin 150 μmol/L, dark incubation 40 min, no blue light, blank reference group 7.4×10^5 CFU/g) | virus killing [3] | influence on growth (Escherichia coli) | photodynamic inactivation effect (Staphylococcus aureus)
Cc1cc2nc3c(=O)[nH]c(=O)nc-3n(C[C@H](O)[C@H](O)[C@H](O)CO)c2cc1C [riboflavin] | 1.12 | 100 | 100 | extremely low | 2.23 | 6.21 | 6.75 | 6.75 | 6.14 | 100 | 6.21 | apparently decreased | 99.88 | 8.4×10^2 CFU/g | 7.0×10^5 CFU/g | killed |  | 
chlorophyllin ester |  |  |  |  |  |  |  |  |  |  |  |  |  |  |  |  | no influence on the growth | significant photodynamic inactivation effect
